From US20160280651A1, “COMPOUNDS THAT INDUCE ABA RESPONSES” (THE REGENTS OF THE UNIVERSITY OF CALIFORNIA, priority 2013, published 2016)

What was measured:
[1] = test system: Arabidopsis plants; assay: Arabidopsis drought stress assay; type: in vivo; conditions: 25 μM, aerosol every 3 days
Method: FIG. 8A-FIG. 8B. Quinabactin confers drought stress tolerance to wild-type plants. (A) Effect of quinabactin on Arabidopsis drought tolerance. Two-week-old plants were subjected to drought stress by withholding water and were photographed after 12 days. During the drought period, plants were treated every 3 days with 25 μM compound. Plants were re-hydrated after 2 weeks drought treatment; the number of surviving plants (out of total number tested) for each treatment is shown next to each image. (B) Effects of quinabactin on soybean. Two-week-old plants were subjected to drought stress by withholding water and photographed after 8 days drought treatment. […]
Physiological assays were performed on Arabidopsis plants grown at 22±2° C. and relative humidity (RH) 45±10% under a 16/8-h light/dark cycle. […] 12 4-week old plants were sprayed per compound or control analyzed. After overnight pre-treatment with compounds, the aerial portions were detached from roots, and their fresh weight measured at 20 min intervals over a 2 hour time period. […] The leaf impressions were analyzed by light microscopy and stomatal apertures were determined from the pore widths using ImageJ 1.43v software (National Institutes of Health, USA). […] Pots were covered in Parafilm to so that the water loss measured was transpiration mediated. […]

[2] = test system: HAB1 with PYR/PYL receptors; assay: Receptor-mediated PP2C inhibition assay with HAB1, Example 1; type: biochemical, Arabidopsis
Method: FIG. 2A-FIG. 2C. Novel ABA agonists inhibit PPC2 activity through multiple PYR/PYL. (A) Chemical structure of naturally occurring (+)-ABA and selected ABA agonists. (B) and (C) HAB1, ABU, and ABI2 PP2C enzyme activity based ABA-agonist assays for various receptors in the presence or absence of 10 μM each test chemical.
FIG. 3A-FIG. 3B. (A) Receptor-mediated dose-dependent inhibition of PP2C enzyme activity by ABA agonists and analogs. (B) Observed compound IC50 values in enzymatic HAB1 PP2C-based ABA-agonist assays.
FIG. 4A-FIG. 4B. Quinabactin activates multiple ABA receptors. (A) Chemical structures of ABA, pyrabactin and quinabactin. (B) Chemical-dependent inhibition of HAB1 by ABA receptors. IC50 values (nM) were determined as described in the methods using 50 nM HAB1, 50 nM and multiple concentrations of compounds; full dose response curves are provided as in FIG. 3. (nd) correspond to receptors that were not produced as active proteins. The phylogenetic tree is a Neighbor-Joining tree made using the JTT distance matrix in MEGA5 (Tamura K, et al. (2011) MEGA5: Molecular Evolutionary Genetics Analysis Using Maximum Likelihood, Evolutionary Distance, and Maximum Parsimony Methods. Molecular Biology and Evolution 28(10):2731-2739).
HAB1 and PYL proteins were expressed and purified as described previously (Park S Y, et al. (2009) Abscisic Acid Inhibits Type 2C Protein Phosphatases via the PYR/PYL Family of START Proteins. Science 324(5930):1068-1071), with minor modifications. To obtain GST-HAB1, -ABI1 and -ABI2 fusion proteins, the HAB1 cDNA was cloned into pGex-2T whereas ABI1 and ABI2 cDNAs were cloned into the vector pGex-4T-1. Expression was conducted in BL21[DE3]pLysS host cells. Transformed cells were pre-cultured overnight, transferred to LB medium and cultured at 30° C. to culture A600 of ˜0.5. The culture was then cooled on ice and MnCl2 added to 4 mM and IPTG added to 0.3 mM. After 16 hours incubation at 15° C., cells were harvested and recombinant proteins were purified on glutathione agarose as described previously (Park S Y, et al. (2009). To obtain 6×His-PYL receptor fusion proteins, receptor cDNAs for all 13 ABA receptors were cloned into the vector pET28 and expressed and purified as described previously (Mosquna A, et al. (2011) Potent and selective activation of abscisic acid receptors in vivo by mutational stabilization of their agonist-bound conformation. PNAS 108(51):20838-20843); this yielded soluble and functional protein (assessed using receptor-mediated PP2C inhibition assays) for all receptors except PYL7, PYL11 and PYL12. These three receptors were therefore alternatively expressed as maltose binding (MBP) fusion proteins using the vector pMAL-c; expression of these constructs was carried out in BL21 [DE3]pLysS host strain with the same induction conditions used for GST-HAB1. Recombinant MBP-PYL fusion proteins were purified from sonicated and cleared lysate using amylose resin (New England Biolab, Inc.) using the manufacturers purification instructions. This effort yielded an active MBP-PYL11 fusion protein, but failed for PYL7 and PYL12.
PP2C activity assays using recombinant receptors and PP2Cs were carried out as follows: Purified proteins were pre-incubated in 80 μl assay buffer containing 10 mM MnCl2, 3 μg bovine serum albumin and 0.1% 2-mercaptoethanol with ABA or ABA agonist for 30 minutes at 22° C. Reactions were started by adding 20 μL of a reaction solution containing 156 mM Tris-OAc, pH 7.9, 330 mM KOAc and 5 mM 4-methylumbelliferyl phosphate after which fluorescence measurements were immediately collected using an excitation filter 355 nm and an emission filter 460 nm on a Wallac plate reader. Reactions contained 50 nM PP2C and 100 nM PYR/PYL proteins, respectively.

CCCN1C(=O)CCc2cc(NS(=O)(=O)Cc3ccc(C)cc3)ccc21 [LC66C6]
Drought stress tolerance [1]: confers drought stress tolerance in Arabidopsis plants similar to that conferred by treatment with (+)-ABA
PP2C inhibition of HAB1 ([2]; 10 μM, receptors PYR1, PYL1, PYL2, PYL3 and PYL5): > 70%
IC50 values of receptor activation ([2]; PYR1, PYLs 1-3 and PYL5): submicromolar
Agonist strength compared with ABA ([2]; PYR1 or PYL1): stronger PYR1 or PYL1 agonist than ABA
Maximal PP2C inhibition compared with pyrabactin ([2]; all receptors tested): higher than that observed with pyrabactin with all receptors tested
